In ChEMBL document CHEMBL6182864, “Design, synthesis and biological evaluation of 3-amino-6-(2-hydroxyphenyl)pyridazin-4-aryl derivatives as SMARCA2/4 degraders” (Eur J Med Chem, 2025):
Calls of active or inactive are those of the source. The calls are words filed in the database; no cut-off is given here.

How the values were obtained:
MV4-11 [1] = experiment: cells; conditions: Homo sapiens, MV4-11, 72 h
MOLM-13 [2] = experiment: cells; conditions: Homo sapiens, MOLM-13, 72 h
MOLM-13 [3] = experiment: Induction of SMARCA4 degradation in human MOLM-13 cells at 10 uM measured after 72 hrs by Western blotting analysis; type: cell-based
MOLM-13 [4] = experiment: Induction of SMARCA2 degradation in human MOLM-13 cells at 10 uM measured after 72 hrs by Western blotting analysis; type: cell-based
MV4-11 [5] = experiment: Induction of apoptosis in human MV4-11 cells assessed as necrotic cells at 100 nM measured after 72 hrs by Annexin-V-FITC/propidium iodide staining based flow cytometry (reference value: 0.1%); type: functional
MV4-11 [6] = experiment: Induction of apoptosis in human MV4-11 cells assessed as late apoptotic cells at 1000 nM measured after 72 hrs by Annexin-V-FITC/propidium iodide staining based flow cytometry (reference value: 1.09%); type: functional
MV4-11 [7] = experiment: Induction of apoptosis in human MV4-11 cells assessed as viable cells at 100 nM measured after 72 hrs by Annexin-V-FITC/propidium iodide staining based flow cytometry (reference value: 89.49%); type: functional; conditions: read-out: Activity
MV4-11 [8] = experiment: Induction of apoptosis in human MV4-11 cells assessed as early apoptotic cells at 1000 nM measured after 72 hrs by Annexin-V-FITC/propidium iodide staining based flow cytometry (reference value: 9.32%); type: functional
MOLM-13 [9] = experiment: Induction of apoptosis in human MOLM-13 cells assessed as viable cells at 300 nM measured after 72 hrs by Annexin-V-FITC/propidium iodide staining based flow cytometry (reference value: 90.28%); type: functional; conditions: read-out: Activity
MV4-11 [10] = experiment: Induction of apoptosis in human MV4-11 cells assessed as early apoptotic cells at 300 nM measured after 72 hrs by Annexin-V-FITC/propidium iodide staining based flow cytometry (reference value: 9.32%); type: functional
MOLM-13 [11] = experiment: Induction of apoptosis in human MOLM-13 cells assessed as necrotic cells at 300 nM measured after 72 hrs by Annexin-V-FITC/propidium iodide staining based flow cytometry (reference value: 0.28%); type: functional
MV4-11 [12] = experiment: Induction of apoptosis in human MV4-11 cells assessed as necrotic cells at 1000 nM measured after 72 hrs by Annexin-V-FITC/propidium iodide staining based flow cytometry (reference value: 0.1%); type: functional
MOLM-13 [13] = experiment: Induction of apoptosis in human MOLM-13 cells assessed as early apoptotic cells at 1000 nM measured after 72 hrs by Annexin-V-FITC/propidium iodide staining based flow cytometry (reference value: 5.57%); type: functional
MOLM-13 [14] = experiment: Induction of apoptosis in human MOLM-13 cells assessed as necrotic cells at 100 nM measured after 72 hrs by Annexin-V-FITC/propidium iodide staining based flow cytometry (reference value: 0.28%); type: functional
MV4-11 [15] = experiment: Induction of apoptosis in human MV4-11 cells assessed as late apoptotic cells at 100 nM measured after 72 hrs by Annexin-V-FITC/propidium iodide staining based flow cytometry (reference value: 1.09%); type: functional
MOLM-13 [16] = experiment: Induction of apoptosis in human MOLM-13 cells assessed as late apoptotic cells at 100 nM measured after 72 hrs by Annexin-V-FITC/propidium iodide staining based flow cytometry (reference value: 3.87%); type: functional
MOLM-13 [17] = experiment: Induction of apoptosis in human MOLM-13 cells assessed as early apoptotic cells at 300 nM measured after 72 hrs by Annexin-V-FITC/propidium iodide staining based flow cytometry (reference value: 5.57%); type: functional
MOLM-13 [18] = experiment: Induction of apoptosis in human MOLM-13 cells assessed as late apoptotic cells at 300 nM measured after 72 hrs by Annexin-V-FITC/propidium iodide staining based flow cytometry (reference value: 3.87%); type: functional
MOLM-13 [19] = experiment: Induction of apoptosis in human MOLM-13 cells assessed as necrotic cells at 1000 nM measured after 72 hrs by Annexin-V-FITC/propidium iodide staining based flow cytometry (reference value: 0.28%); type: functional
MOLM-13 [20] = experiment: Induction of apoptosis in human MOLM-13 cells assessed as early apoptotic cells at 100 nM measured after 72 hrs by Annexin-V-FITC/propidium iodide staining based flow cytometry (reference value: 5.57%); type: functional
MV4-11 [21] = experiment: Induction of apoptosis in human MV4-11 cells assessed as viable cells at 1000 nM measured after 72 hrs by Annexin-V-FITC/propidium iodide staining based flow cytometry (reference value: 89.49%); type: functional; conditions: read-out: Activity
MOLM-13 [22] = experiment: Induction of apoptosis in human MOLM-13 cells assessed as late apoptotic cells at 1000 nM measured after 72 hrs by Annexin-V-FITC/propidium iodide staining based flow cytometry (reference value: 3.87%); type: functional
MV4-11 [23] = experiment: Induction of apoptosis in human MV4-11 cells assessed as early apoptotic cells at 100 nM measured after 72 hrs by Annexin-V-FITC/propidium iodide staining based flow cytometry (reference value: 9.32%); type: functional
MOLM-13 [24] = experiment: Induction of apoptosis in human MOLM-13 cells assessed as viable cells at 100 nM measured after 72 hrs by Annexin-V-FITC/propidium iodide staining based flow cytometry (reference value: 90.28%); type: functional; conditions: read-out: Activity
MV4-11 [25] = experiment: Induction of apoptosis in human MV4-11 cells assessed as viable cells at 300 nM measured after 72 hrs by Annexin-V-FITC/propidium iodide staining based flow cytometry (reference value: 89.49%); type: functional; conditions: read-out: Activity
MV4-11 [26] = experiment: Induction of apoptosis in human MV4-11 cells assessed as late apoptotic cells at 300 nM measured after 72 hrs by Annexin-V-FITC/propidium iodide staining based flow cytometry (reference value: 1.09%); type: functional
MOLM-13 [27] = experiment: Induction of apoptosis in human MOLM-13 cells assessed as viable cells at 1000 nM measured after 72 hrs by Annexin-V-FITC/propidium iodide staining based flow cytometry (reference value: 90.28%); type: functional; conditions: read-out: Activity
MV4-11 [28] = experiment: Induction of apoptosis in human MV4-11 cells assessed as necrotic cells at 300 nM measured after 72 hrs by Annexin-V-FITC/propidium iodide staining based flow cytometry (reference value: 0.1%); type: functional

SMILES: Cc1ncsc1-c1ccc([C@H](C)NC(=O)[C@@H]2C[C@@H](O)CN2C(=O)[C@@H](NC(=O)CCc2ccc(-c3cc(-c4ccccc4O)nnc3N)cc2)C(C)(C)C)cc1
- IC50 (MV4-11 [1]): 3.11 µM
- IC50 (MOLM-13 [2]): 8.73 µM

SMILES: Cc1ncsc1-c1ccc(CNC(=O)[C@@H]2C[C@@H](O)CN2C(=O)[C@@H](NC(=O)CSc2ccc(-c3cc(-c4ccccc4O)nnc3N)cc2)C(C)(C)C)cc1
- IC50 (MV4-11 [1]): 5.77 µM
- IC50 (MOLM-13 [2]): 7.78 µM

SMILES: Cc1ncsc1-c1ccc(CNC(=O)[C@@H]2C[C@@H](O)CN2C(=O)[C@@H](NC(=O)CCCc2ccc(-c3cc(-c4ccccc4O)nnc3N)cc2)C(C)(C)C)cc1
- IC50 (MV4-11 [1]): 0.02 µM
- IC50 (MOLM-13 [2]): 1.45 µM

SMILES: Cc1ncsc1-c1ccc(CNC(=O)[C@@H]2C[C@@H](O)CN2C(=O)[C@@H](NCc2ccc(-c3cc(-c4ccccc4O)nnc3N)cc2)C(C)(C)C)cc1
- IC50 (MV4-11 [1]): 4.78 µM
- IC50 (MOLM-13 [2]): 4.67 µM

SMILES: Cc1ncsc1-c1ccc([C@H](C)NC(=O)[C@@H]2C[C@@H](O)CN2C(=O)[C@@H](NCc2ccc(-c3cc(-c4ccccc4O)nnc3N)cc2)C(C)(C)C)cc1
- IC50 (MV4-11 [1]): 3.88 µM
- IC50 (MOLM-13 [2]): 6.85 µM

SMILES: Cc1ncsc1-c1ccc(CNC(=O)[C@@H]2C[C@@H](O)CN2C(=O)[C@@H](NC(=O)COc2ccc(-c3cc(-c4ccccc4O)nnc3N)cc2)C(C)(C)C)cc1
- IC50 (MV4-11 [1]): 0.3 µM
- IC50 (MOLM-13 [2]): 0.85 µM

SMILES: Cc1ncsc1-c1ccc(CNC(=O)[C@@H]2C[C@@H](O)CN2C(=O)[C@@H](NC(=O)CCc2ccc(-c3cc(-c4ccccc4O)nnc3N)cc2)C(C)(C)C)cc1
- IC50 (MV4-11 [1]): 2.14 µM
- IC50 (MOLM-13 [2]): 3.87 µM

SMILES: CC(C)C[C@H](NC(=O)[C@H](Cc1ccccc1)NC(=O)c1cnccn1)B(O)O
- Activity (MOLM-13 [3]): Active
- Activity (MOLM-13 [4]): Active

SMILES: Cc1ncsc1-c1ccc([C@H](C)NC(=O)[C@@H]2C[C@@H](O)CN2C(=O)[C@@H](NC(=O)CCCc2ccc(-c3cc(-c4ccccc4O)nnc3N)cc2)C(C)(C)C)cc1
- IC50 (MV4-11 [1]): 0.34 µM
- IC50 (MOLM-13 [2]): 0.12 µM

SMILES: Cc1ncsc1-c1ccc([C@H](C)NC(=O)[C@@H]2C[C@@H](O)CN2C(=O)[C@@H](NC(=O)c2ccc(-c3cc(-c4ccccc4O)nnc3N)cc2)C(C)(C)C)cc1
- IC50 (MV4-11 [1]): > 10 µM
- IC50 (MOLM-13 [2]): > 10 µM

SMILES: Cc1ncsc1-c1ccc([C@H](C)NC(=O)[C@@H]2C[C@@H](O)CN2C(=O)[C@@H](NC(=O)CSc2ccc(-c3cc(-c4ccccc4O)nnc3N)cc2)C(C)(C)C)cc1
- IC50 (MV4-11 [1]): 5.75 µM
- IC50 (MOLM-13 [2]): 5.1 µM

SMILES: Cc1ncsc1-c1ccc([C@H](C)NC(=O)[C@@H]2C[C@@H](O)CN2C(=O)[C@@H](NC(=O)Cc2ccc(-c3cc(-c4ccccc4O)nnc3N)cc2)C(C)(C)C)cc1
- IC50 (MV4-11 [1]): 0.24 µM
- IC50 (MOLM-13 [2]): 3.82 µM

SMILES: Cc1ncsc1-c1ccc(CNC(=O)[C@@H]2C[C@@H](O)CN2C(=O)[C@@H](NC(=O)Cc2ccc(-c3cc(-c4ccccc4O)nnc3N)cc2)C(C)(C)C)cc1
- IC50 (MV4-11 [1]): 0.71 µM
- IC50 (MOLM-13 [2]): 2.73 µM

SMILES: Cc1ncsc1-c1ccc(CNC(=O)[C@@H]2C[C@@H](O)CN2C(=O)[C@@H](NC(=O)C2(c3ccc(-c4cc(-c5ccccc5O)nnc4N)cc3)CC2)C(C)(C)C)cc1
- IC50 (MV4-11 [1]): 0.03 µM
- IC50 (MOLM-13 [2]): 0.26 µM

SMILES: Cc1ncsc1-c1ccc([C@H](C)NC(=O)[C@@H]2C[C@@H](O)CN2C(=O)[C@@H](NC(=O)COc2ccc(-c3cc(-c4ccccc4O)nnc3N)cc2)C(C)(C)C)cc1
- IC50 (MV4-11 [1]): 0.12 µM
- IC50 (MOLM-13 [2]): 0.46 µM

SMILES: NS(=O)(=O)OC[C@@H]1C[C@@H](n2ccc3c(N[C@H]4CCc5ccccc54)ncnc32)C[C@@H]1O
- Activity (MOLM-13 [3]): Active
- Activity (MOLM-13 [4]): Active

SMILES: Cc1ncsc1-c1ccc(CNC(=O)[C@@H]2C[C@@H](O)CN2C(=O)[C@@H](NC(=O)c2ccc(-c3cc(-c4ccccc4O)nnc3N)cc2)C(C)(C)C)cc1
- IC50 (MV4-11 [1]): 5.07 µM
- IC50 (MOLM-13 [2]): 9.61 µM

SMILES: Cc1ncsc1-c1ccc([C@H](C)NC(=O)[C@@H]2C[C@@H](O)CN2C(=O)[C@@H](NC(=O)CN2CCN(c3cc(-c4ccccc4O)nnc3N)CC2)C(C)(C)C)cc1
- Activity (MV4-11 [5]): 1.43%
- Activity (MV4-11 [6]): 24.02%
- viability at 0.1 µM (MV4-11 [7]): 24%
- Activity (MV4-11 [8]): 56.45%
- viability at 0.3 µM (MOLM-13 [9]): 21.8%
- Activity (MV4-11 [10]): 52.83%
- Activity (MOLM-13 [11]): 0.31%
- Activity (MV4-11 [12]): 1.01%
- Activity (MOLM-13 [13]): 58.07%
- Activity (MOLM-13 [14]): 0.25%
- Activity (MV4-11 [15]): 22.53%
- Activity (MOLM-13 [16]): 6.71%
- Activity (MOLM-13 [17]): 62.09%
- Activity (MOLM-13 [18]): 15.85%
- Activity (MOLM-13 [19]): 0.28%
- Activity (MOLM-13 [20]): 39.38%
- viability at 1 µM (MV4-11 [21]): 18.5%
- Activity (MOLM-13 [22]): 27.77%
- Activity (MV4-11 [23]): 52.03%
- viability at 0.1 µM (MOLM-13 [24]): 53.7%
- viability at 0.3 µM (MV4-11 [25]): 19.1%
- Activity (MV4-11 [26]): 26.43%
- viability at 1 µM (MOLM-13 [27]): 13.9%
- Activity (MV4-11 [28]): 1.63%
